Results as given in patent US20120010176A1, “UTROPHIN PROMOTER ACTIVITY UPREGULATION FOR THE TREATMENT OF MUSCULAR DYSTROPHY” (priority 2008, published 2012).
Where a name gives a salt, the structure may show the parent alone.

What was measured:
utrophin A mRNA = utrophin A mRNA upregulation in C2C12 muscle cells (TaqMan qPCR); type: cell-based; conditions: either in serum-containing or serum-free media, FIG. 4
Description: In a further experiment, the activity of kawain, equilin and nabumetone were evaluated in C2C12 muscle cells for upregulation of utrophin A mRNA (FIG. 3). C2C12 muscle cells were treated with optimal doses of compounds (based on previous dose-response data) for 24 hours, either in the presence of serum or in the absence of serum (following 24 hours of serum starvation). Trichostatin A and heregulin were used as positive controls for utrophin upregulation in the presence (trichostatin A) or absence (heregulin) of serum. Utrophin A mRNA was measured using a TaqMan qPCR assay and normalised to 18S rRNA. Data are presented as fold-changes in utrophin A mRNA compared to DMS O-only controls (compounds) or media-only controls (trichostatin A and heregulin).
Additional experiments were performed in C2C12 cells. […] C2C12 cells were treated with Prestwick compounds A, J, L and S plus TSA and heregulin (HRG) as positive controls.

utrophin promoter [1] = assay: utrophin promoter-luciferase reporter screen, 384-well format; type: cell-based; conditions: C2C12utrn cells; for maximal fold induction: 24 h, read-out: Max. fold change
Description: (§1) The ability of test compounds to upregulate activity of the utrophin promoter was determined using the muscle cell line C2C12utrn, which contains the utrophin gene promoter linked to the protein-encoding sequence for luciferase. Using these cells, a chemical library was screened for compounds that activate the utrophin promoter. Light production was the readout.
In the first screening, 384-well plates were used to grow C2C12 […] cells and expose to test compounds. Cells were exposed to test compounds at a single concentration for 24 hours, wherein 19 compounds of 1120 tested produced an increase of at least 20% of the activity of the luciferase reporter.
Subsequently, the 19 compounds were rescreened at 15 different concentrations.

utrophin promoter [2] = assay: utrophin promoter-luciferase reporter assay, 96-well format; type: cell-based; conditions: for maximal fold induction: read-out: Max. fold change; for dose-dependent activation of the utrophin promoter: range of concentrations, 96-well plate format, FIGS. 1 and 2
Description: as §1
In some cases compounds were tested at a range of concentrations on test cells in a 96-well plate format.

mice = assay: in vivo treatment of mice: muscle weights and muscle function
Source text: In vivo experiments were perfomed in mice by treating with nabumetone. […] Soleus, gastrocnemius (gastroc), tibialis anterior (TA) and quadriceps (quads) were bigger in treated mice. […] There was no difference in whole body weight between treatment groups.

[3] = 96-well format, C2C12utrn cells, luciferase readout

dose-dependent activation of the utrophin promoter (utrophin promoter [2])	Compound	maximal fold induction (utrophin promoter [1]; luciferase readout)	maximal fold induction (utrophin promoter [2]; [3])	further results
	CC(/C=C/C(=O)NO)=C\[C@@H](C)C(=O)c1ccc(N(C)C)cc1 [TSA, Trichostatin A]			levels of endogenous utrophin A mRNA (utrophin A mRNA): increased
dose-dependent activation	O=c1cc(-c2ccc(O)cc2)oc2cc(O)cc(O)c12 [apigenin, 5,7-dihydroxy-2-(4-hydroxyphenyl)-4H-1-benzopyran-4-one]	1.54	3.5	
dose-dependent activation	O=c1cc(-c2ccccc2)oc2cc(O)cc(O)c12 [chrysin, 5,7-dihydroxy-2-phenyl-4H-chromen-4-one]	1.5	3.4	
dose-dependent activation	C#CCN(C)CCCOc1ccc(Cl)cc1Cl [clorgyline HCl, N-[3-(2,4-dichlorophenoxy)propyl]-N-methylprop-2-yn-1-amine]	1.16	1.9	
dose-dependent activation	COc1ccc([C@@H]2CC(=O)c3c(O)cc(O)cc3O2)cc1O [hesperetin, (S)-2,3-dihydro-5,7-dihydroxy-2-(3-hydroxy-4-methoxyphenyl)-4H-1-benzopyran-4-one]	1.94	2.9	
dose-dependent activation	Cc1oncc1C(=O)Nc1ccc(C(F)(F)F)cc1 [leflunomide, 5-methyl-N-[4-(trifluoromethyl)phenyl]isoxazole-4-carboxamide]	1.38	2.9	
dose-dependent activation	COc1ccc2cc(CCC(C)=O)ccc2c1 [nabumetone, 4-(6-methoxy-2-naphthyl)-2-butanone]	1.56	2.5	whole body weight between treatment groups (mice; mice, FIG. 5): no difference; muscle weight, EDL (mice; treated mice, FIG. 5): not significantly bigger; muscle weight, gastrocnemius (gastroc) (mice; treated mice, FIG. 5, p<0.05): bigger; muscle weight, quadriceps (quads) (mice; treated mice, FIG. 5, p<0.05): bigger; muscle weight, soleus (mice; treated mice, FIG. 5, p<0.05): bigger; muscle weight, tibialis anterior (TA) (mice; treated mice, FIG. 5, p<0.05): bigger; force generating capacity (mice; treated muscles, FIG. 6): trend towards increased; peak specific twitch force (mice; treated muscles, FIG. 6, p<0.05): significantly increased; force drop on eccentric contraction (mice; treated muscles, FIG. 6, trend): decreased
dose-dependent activation	Nc1ccc(/N=N/c2ccccc2)c(N)n1 [phenazopyridine HCl, 3-phenyldiazenylpyridine-2,6-diamine]	1.62	2.6	
dose-dependent activation	O=C(/C=C/C=C/c1ccc2c(c1)OCO2)N1CCCCC1 [piperine, 1-[5-(1,3-benzodioxol-5-yl)-1-oxo-2,4-pentadienyl]piperidine]	1.59	2.3	
dose-dependent activation	Oc1ccc(/C=C/c2cc(O)cc(O)c2)cc1 [resveratrol, trans-3,4′,5-trihydroxystilbene]	1.62	2.2	
dose-dependent activation	Nc1nc2ccc(OC(F)(F)F)cc2s1 [riluzole HCl, 6-(trifluoromethoxy)benzothiazol-2-amine]	1.56	2.2	
dose-dependent activation	c1ccc2[nH]c(-c3cscn3)nc2c1 [tiabendazole, 2-(1,3-thiazol-4-yl)-1H-benzoimidazole]	1.86	2.1	
	heregulin			levels of endogenous utrophin A mRNA (utrophin A mRNA): increased

Compound	dose-dependent activation of the utrophin promoter (utrophin promoter [2])	maximal fold induction (utrophin promoter [1]; luciferase readout)	maximal fold induction (utrophin promoter [2]; [3])	further results
C[C@]12CC[C@H]3C(=CCc4cc(O)ccc43)[C@@H]1CCC2=O [equilin, 3-hydroxy-13-methyl-9,11,12,14,15,16-hexahydro-6H-cylcopenta(a)phenanthren-17-one]	dose-dependent activation	1.6	3.4	
COC1=CC(=O)O[C@@H](/C=C/c2ccccc2)C1 [kawain, [R-(E)]-5,6-dihydro-4-methoxy-6-(2-phenylethenyl)-2H-pyran-2-one]	dose-dependent activation			Optimal dose (utrophin promoter [1]): 10 µM; Max. fold change (utrophin promoter [1]; luciferase readout): 1.37; Optimal dose (utrophin promoter [2]; 96-well format, C2C12utrn cells): 20 µM; Max. fold change (utrophin promoter [2]; [3]): 2.5
